The target of one data set is T1, SHP1 (Homo sapiens, UniProt P29350).
T1 construct: SHP1, residues 245-543; made in house; host or cells: E. coli BL21(DE3)
Description: Intact protein LC-MS covalent adduct formation. Format: binding. The following applies: 60 min, room temperature, pH 7.0; single adduct. The procedure:
(§1) The moderate half‐life in the presence of excessive GSH implied the low intrinsic reactivity of Z57117023. e) SHP1 protein was incubated with or without Z57117023 in 3,3‐dimethylglutarate buffer (pH = 7.0) for 60 min at room temperature to form a covalent adduct.
Covalent inhibitors generally inactivate their targets through a two‐step process, starting with a reversible binding event (characterized by the dissociation constant K I) and followed by covalent bond formation (represented by the first‐order rate constant of inactivation k inact). Although IC50 values are often utilized to assess the potency of covalent inhibitors, the second‐order rate constant k inact/K I is preferred because it provides a measure of covalent inhibition in a time‐ and dose‐independent manner.^[ [60], [62], [67], [68] ^] […] A single SHP1‐Z57117023 adduct was observed when SHP1 was incubated with Z57117023, with a mass shift of 295.21 Da (calculated 295.54 Da) (Figure 1e), consistent with the loss of a chlorine atom from Z57117023.
The mixtures were centrifuged to remove the unfolded SHP1 proteins, and the supernatants were spiked with a control protein CDC14A, followed by loading into SDS‐PAGE gels to quantify the relative SHP1 level.

In another data set the target is T2, PTPN22 (Homo sapiens, UniProt Q9Y2R2).
T2 construct: LYP/PTPN22, residues 1-294; made in house; host or cells: E. coli BL21(DE3)
T2 sequence (Q9Y2R2 1-294): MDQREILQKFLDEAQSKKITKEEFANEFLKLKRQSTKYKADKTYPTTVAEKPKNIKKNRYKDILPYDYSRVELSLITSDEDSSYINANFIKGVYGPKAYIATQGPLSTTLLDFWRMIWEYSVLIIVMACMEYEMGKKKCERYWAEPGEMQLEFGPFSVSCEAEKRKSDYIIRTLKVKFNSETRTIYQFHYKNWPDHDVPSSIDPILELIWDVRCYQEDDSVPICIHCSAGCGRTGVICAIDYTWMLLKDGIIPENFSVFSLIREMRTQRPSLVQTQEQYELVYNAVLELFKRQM
The experiment in a line: IC50 after preincubation, DiFMUP phosphatase assay. The data set is classed as biochemical. The procedure:
(§2) To further confirm the time-dependent inhibition and determine the IC50 of acquired hits, repurchased compounds from Enamine were serially diluted in a 96-well plate, followed by the addition of proteins at 200 nM. After 10-minute and 60-minute preincubation, 2 µL of the mixture was transferred into 100 µM 6,8-Difluoro-4-Methylumbelliferyl Phosphate (DiFMUP, Invitrogen, cat# D6567) at a final volume of 200 µL. The reaction was allowed to proceed for 5 minutes and quenched by the addition of 40 µl of a 160 µM solution of bpV(Phen) (Sigma-Aldrich, cat# SML0889). The fluorescence signal was measured using a CLARIOstar Plus Microplate Spectrophotometer (BMG Labtech) using excitation and emission wavelengths of 340 nm and 450 nm, respectively. Data were fitted using Prism GraphPad 10.1.1.

Another data set has as its target T3, PTP1B (Homo sapiens, UniProt P18031).
T3 construct: PTP1B, residues 1-321; made in house; host or cells: E. coli BL21(DE3)
Description: IC50 after preincubation, DiFMUP phosphatase assay. The data set is classed as biochemical. The procedure:
as §2

Data set [1] in a line: Intrinsic reactivity toward GSH, LC-MS. Format: physicochemical. The protocol: as §1
(§3) The area under the curve (AUC) of each measurement was normalized to 10 µM compounds to calculate the percent remaining. Data were fitted using Prism GraphPad 10.1.1.

For another data set, the system named is GSH. The experiment in a line: Intrinsic reactivity toward GSH, LC-MS. The data set is classed as physicochemical. The following applies: GSH in 3,3-dimethylglutarate (DMG) buffer, LC-MS. The protocol: as §1, §3
[2] abbreviates: pH 7, 100-fold excess GSH, pH 7.0, room temperature, read-out: half-life (t1/2) toward excess GSH (converted).

We go through two compounds from article PMC12833730, “Discovery of a First‐in‐Class Covalent Allosteric SHP1 Inhibitor with Immunotherapeutic Activity” (Angewandte Chemie (International Ed. in English), 2025).

Values joined by “and” are separate entries in the source; they are usually repeats but may differ in a detail not shown here. Equal entries are not always repeated. Where two headings read alike, the source gives them in different places. Bounds are passed on as bounds.

In general, IC50 refers to the concentration needed to halve the response being measured.

T1 sequence (P29350 245-543): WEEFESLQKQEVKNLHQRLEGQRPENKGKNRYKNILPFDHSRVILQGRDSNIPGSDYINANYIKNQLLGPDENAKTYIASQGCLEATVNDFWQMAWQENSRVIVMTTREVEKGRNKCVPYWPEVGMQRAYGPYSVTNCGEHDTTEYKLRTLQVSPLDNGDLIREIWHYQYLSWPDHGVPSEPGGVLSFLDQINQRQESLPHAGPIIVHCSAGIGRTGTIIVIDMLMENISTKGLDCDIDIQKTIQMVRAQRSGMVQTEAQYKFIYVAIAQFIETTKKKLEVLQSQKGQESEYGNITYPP
T3 sequence (P18031 1-321, species assumed): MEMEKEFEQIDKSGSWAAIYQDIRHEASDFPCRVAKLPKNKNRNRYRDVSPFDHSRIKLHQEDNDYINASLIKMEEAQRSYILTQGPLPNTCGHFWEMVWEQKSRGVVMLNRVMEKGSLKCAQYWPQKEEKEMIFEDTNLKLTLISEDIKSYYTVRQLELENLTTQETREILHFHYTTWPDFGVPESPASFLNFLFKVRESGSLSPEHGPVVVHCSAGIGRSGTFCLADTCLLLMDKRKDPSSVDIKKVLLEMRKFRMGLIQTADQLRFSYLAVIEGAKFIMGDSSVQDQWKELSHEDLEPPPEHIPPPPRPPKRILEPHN

With `N#Cc1ccsc1NS(=O)(=O)c1ccc(NC(=O)CCl)cc1` [M029, 2-Chloro-N-(4-(N-(3-cyanothiophen-2-yl)sulfamoyl)phenyl)acetamide], the “mass shift of SHP1 covalent adduct” value at SHP1 was 319.31 ± 1.14 Da and 319.31 Da. Further, the 50% inhibitory concentration (IC50) at PTPN22 (60-min preincubation, read-out: 60 min IC50, PTPN22) was 88.6 ± 20.1 µM; on PTP1B (60-min preincubation, read-out: 60 min IC50, PTP1B), 152 ± 16.6 µM. The “fold less reactive toward GSH than Z57117023” value in data set [1] (vs Z57117023) is on record as 5 fold. The half-life at 10 µM in the data set with GSH (setting [2]) was 34.3 h.
On to `O=C(CCl)Nc1ccc(S(=O)(=O)Nc2nccs2)cc1` [Z57117023, 2-chloro-N-(4-(N-(thiazol-2-yl)sulfamoyl)phenyl)acetamide], for which, at SHP1, the “mass shift of SHP1 covalent adduct” value was 295.21 Da. Also, the IC50 is above 200 µM at PTPN22 (10-min preincubation, read-out: PTPN22 IC50, 10 min); above 200 µM at PTPN22 (60-min preincubation, read-out: PTPN22 IC50, 60 min); above 200 µM at PTP1B (column headed 60 min (c7), read-out: PTP1B IC50, 60 min). In addition, the “reactivity toward GSH (in words)” value in data set [1] is “minimal reactivity toward GSH”. The half-life at 10 µM with GSH (pH 7, 100-fold excess GSH, 3,3-dimethylglutarate buffer pH 7.0, room temperature, read-out: half-life with GSH) is 7.07 ± 0.918 h; with GSH (setting [2]), around 7.1 h.
